Each structure is given as a SMILES string.

Common to all, as to assay type: in vivo
The test system of test [1] is Echinochloa crus-galli. The test can be described thus: Test Example 2: herbicidal effect test by treatment during growing period in paddy rice cultivation (seven days after seeding). Particulars: 120 g/10a active ingredient, assessed 14 days after treatment, dry weight vs untreated area. The procedure, abridged: (§1)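 Greenhouse flooded-pot test, seeds sown in puddled paddy soil; emulsion applied into water 7 d after seeding, 120 g a.i./10 a. Dry-weight-based herbicidal rate at 14 d, n=2.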

Test [2] relates to Scirpus juncoides. Described as above. The note with it: 120 g/10a active ingredient, assessed 14 days after treatment, dry weight vs untreated area. A digest of the protocol:
as §1

The subject of test [3] is broad leaf weeds (Lindernia pyxidaria and Monochoria vaginalis). The description is as above. The note with it: 120 g/10a active ingredient, assessed 14 days after treatment, dry weight vs untreated area. A digest of the protocol:
as §1

Test [4] has as its system Echinochloa crus-galli. The test can be described thus: Test Example 4: herbicidal effect test by treatment of leave and stem in dry field farming (seven days after seeding). The note with it: 120 g/10a active ingredient; emulsion sprayed seven days after seeding; evaluated 14 days after treatment. The procedure, abridged: (§2)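 Twenty seeds per species were mixed into the top 1 cm of alluvial soil in 36 cm^2 pots; emulsions were sprayed seven days after seeding at 100 L per 10 ares (120 g active ingredient per 10 ares). Herbicidal rate (%) = {1 − treated/untreated mean dry weight} × 100, 14 days after treatment, duplicate.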

Test [5] relates to Chenopodium album. Described as above. The note with it: 120 g/10a active ingredient; emulsion sprayed seven days after seeding; evaluated 14 days after treatment. The procedure, abridged:
as §2

In test [6] the test system is southern crabgrass. The description is as above. Particulars: 120 g/10a active ingredient; emulsion sprayed seven days after seeding; evaluated 14 days after treatment. A digest of the protocol:
as §2

The subject of test [7] is Amaranthus viridis. Described as above. Particulars: 120 g/10a active ingredient; emulsion sprayed seven days after seeding; evaluated 14 days after treatment. A digest of the protocol: as §2
In test [8] the test system is Echinochloa crus-galli. In words: Test Example 3: herbicidal effect test by treatment of dry field farming soil (one day after seeding). Particulars: 120 g/10a active ingredient, evaluated 14 days after treatment. The procedure, abridged: (§3)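 Compound emulsions are sprayed on the soil surface one day after sowing (120 g a.i. per 10 ares) before weeds emerge. Effect is expressed as percent dry-weight reduction versus untreated controls 14 days post-treatment.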

The subject of test [9] is Chenopodium album. The test is described as above. Particulars: 120 g/10a active ingredient, evaluated 14 days after treatment. A digest of the protocol:
as §3

The test system of test [10] is southern crabgrass. Described as above. Particulars: 120 g/10a active ingredient, evaluated 14 days after treatment. A digest of the protocol:
as §3

In test [11] the test system is Amaranthus viridis. The description is as above. The note with it: 120 g/10a active ingredient, evaluated 14 days after treatment. The procedure, abridged:
as §3

The test system of test [12] is Echinochloa crus-galli. The test can be described thus: Test Example 1: herbicidal effect test by treatment of rice paddy soil (immediately after seeding). The note with it: 120 g/10a active ingredient, dry weight vs untreated area, 14 days after treatment. A digest of the protocol:
(§4)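 Application occurs immediately after seeding, with diluted emulsion added to paddy water (about 3 cm deep) over puddled, fertilized soil at 120 g active ingredient per 10 ares. Herbicidal rate is calculated from mean dry weight against untreated controls 14 days later.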

The subject of test [13] is Scirpus juncoides. Described as above. The note with it: 120 g/10a active ingredient, dry weight vs untreated area, 14 days after treatment. A digest of the protocol: as §4
In test [14] the test system is broad leaf weeds (Lindernia pyxidaria and Monochoria vaginalis). The test is described as above. Particulars: 120 g/10a active ingredient, dry weight vs untreated area, 14 days after treatment. The procedure, abridged:
as §4

As for `CCC(C)CCn1oc(=O)c(Cc2ccccc2NS(=O)(=O)C(F)(F)F)c1C` (stereo not shown) [Compound 1-124], the figures for the “Herbicidal rate (%) Echinochloa crus-galli” value in test [1] and in test [12] were 90% and 100%, respectively. For the same compound, the “Herbicidal rate (%) Scirpus juncoides” value was 80% in test [2] and 90% in test [13]. For the same compound, the “Herbicidal rate (%) Lindernia pyxidaria” value in [3] stood at 60%; in test [14] it was 90%. The “Herbicidal rate (%) Monochoria vaginalis” value is listed as 70% in [3] and 90% in test [14]. Also, the “herbicidal effect (herbicidal rate), Echinochloa crus-galli” value in [4] is given as 70%. In addition, the “herbicidal effect (herbicidal rate), Chenopodium album” value (“herbicidal effect … Chenopodium album” for short) in test [5] is 40%. For the same compound, the “herbicidal effect (herbicidal rate), southern crabgrass” value (“herbicidal effect … southern crabgrass” below) in [6] turned out to be 60%. In addition, in test [7], the “herbicidal effect (herbicidal rate), Amaranthus viridis” value (“herbicidal effect … Amaranthus viridis” below) was found to be 40%. In addition, the “herbicidal rate, Echinochloa crus-galli” value in test [8] was found to be 100%. In addition, the “herbicidal rate, Chenopodium album” value in test [9] is recorded as 50%. Further, in [10], the “herbicidal rate, southern crabgrass” value worked out at 80%. Moreover, in [11], the “herbicidal rate, Amaranthus viridis” value is 40%.

For the compound `CCCCC(CC)Cn1oc(=O)c(Cc2ccccc2NS(=O)(=O)C(F)(F)F)c1C` (stereo not shown) [Compound 1-130], the “Herbicidal rate (%) Echinochloa crus-galli” value in [1] and in test [12] was 100% each time. In addition, the entries for the “Herbicidal rate (%) Scirpus juncoides” value in test [2] and in [13] were 80% and 100%, respectively. Also, the “Herbicidal rate (%) Lindernia pyxidaria” value in test [3] is on record as 90%; in test [14] it was 100%. Also, the “Herbicidal rate (%) Monochoria vaginalis” value stood at 90% in test [3] and 100% in test [14]. In addition, in test [4], the “herbicidal effect (herbicidal rate), Echinochloa crus-galli” value was found to be 60%. Moreover, in [5], the “herbicidal effect … Chenopodium album” value was determined as 40%. In addition, the “herbicidal effect … southern crabgrass” value in test [6] is given as 60%. The “herbicidal effect … Amaranthus viridis” value in test [7] stood at 50%. In addition, the “herbicidal rate, Echinochloa crus-galli” value in test [8] came out at 90%. The “herbicidal rate, Chenopodium album” value in test [9] amounted to 50%. Moreover, in test [10], the “herbicidal rate, southern crabgrass” value is given as 70%. Also, the “herbicidal rate, Amaranthus viridis” value in test [11] is given as 40%.

For `C=CC(C)n1oc(=O)c(Cc2ccccc2NS(=O)(=O)C(F)(F)F)c1C` (stereo not shown) [Compound 1-136], the “Herbicidal rate (%) Echinochloa crus-galli” value in [1] is listed as 90%; in [12] it was 100%. In addition, the “Herbicidal rate (%) Scirpus juncoides” value in test [2] and in test [13] was 90% each time. The entries for the “Herbicidal rate (%) Lindernia pyxidaria” value in [3] and in test [14] were 60% and 80%, respectively. Moreover, the “Herbicidal rate (%) Monochoria vaginalis” value in test [3] and in [14] was 70% each time. Besides, the “herbicidal effect (herbicidal rate), Echinochloa crus-galli” value in test [4] is 70%. Besides, the “herbicidal effect … Chenopodium album” value in [5] was 60%. For the same compound, the “herbicidal effect … southern crabgrass” value in test [6] stood at 70%. Further, the “herbicidal effect … Amaranthus viridis” value in test [7] turned out to be 60%. In [8], the “herbicidal rate, Echinochloa crus-galli” value amounted to 100%. In addition, the “herbicidal rate, Chenopodium album” value in test [9] came to 60%. Moreover, the “herbicidal rate, southern crabgrass” value in test [10] amounted to 100%. Besides, in test [11], the “herbicidal rate, Amaranthus viridis” value stood at 100%.

As for `C=C(C)Cn1oc(=O)c(Cc2ccccc2NS(=O)(=O)C(F)(F)F)c1C` [Compound 1-137], the “Herbicidal rate (%) Echinochloa crus-galli” value in [1] and in test [12] was 90% in each case. In addition, the “Herbicidal rate (%) Scirpus juncoides” value in test [2] was 80%; in test [13], 90%. For the same compound, the “Herbicidal rate (%) Lindernia pyxidaria” value in test [3] was 40%; in [14] it was 90%. Also, the “Herbicidal rate (%) Monochoria vaginalis” value was found to be 60% in test [3] and 70% in test [14]. For the same compound, the “herbicidal effect (herbicidal rate), Echinochloa crus-galli” value in test [4] was found to be 80%. In test [5], the “herbicidal effect … Chenopodium album” value is recorded as 0%. Besides, in [6], the “herbicidal effect … southern crabgrass” value came to 0%. Also, the “herbicidal effect … Amaranthus viridis” value in [7] came to 80%. The “herbicidal rate, Echinochloa crus-galli” value in test [8] is 70%. Further, the “herbicidal rate, Chenopodium album” value in test [9] came to 40%. For the same compound, in [10], the “herbicidal rate, southern crabgrass” value is listed as 50%. Further, the “herbicidal rate, Amaranthus viridis” value in test [11] is on record as 40%.

Consider `C#CCn1oc(=O)c(Cc2ccccc2NS(=O)(=O)C(F)(F)F)c1C` [Compound 1-138], for which the “Herbicidal rate (%) Echinochloa crus-galli” value in test [1] and in [12] was 90% each time. Also, the “Herbicidal rate (%) Scirpus juncoides” value in test [2] was 80%; in [13] it was 90%. For the same compound, the “Herbicidal rate (%) Lindernia pyxidaria” value worked out at 80% in test [3] and 100% in test [14]. Moreover, the “Herbicidal rate (%) Monochoria vaginalis” value in test [3] is given as 80%; in [14] it was 100%. Also, the “herbicidal effect (herbicidal rate), Echinochloa crus-galli” value in test [4] is recorded as 80%. In addition, the “herbicidal effect … Chenopodium album” value in test [5] amounted to 0%. In addition, the “herbicidal effect … southern crabgrass” value in test [6] is listed as 80%. In addition, the “herbicidal effect … Amaranthus viridis” value in test [7] came out at 40%. Also, in [8], the “herbicidal rate, Echinochloa crus-galli” value was 90%. The “herbicidal rate, Chenopodium album” value in test [9] is reported as 0%. Also, the “herbicidal rate, southern crabgrass” value in test [10] amounted to 90%. In test [11], the “herbicidal rate, Amaranthus viridis” value worked out at 0%.

With `Cc1c(Cc2ccccc2NS(=O)(=O)C(F)(F)F)c(=O)on1C1CCCCC1` [Compound 1-142], the “Herbicidal rate (%) Echinochloa crus-galli” value in [1] and in test [12] was 100% throughout. Further, the “Herbicidal rate (%) Scirpus juncoides” value in test [2] and in test [13] was 90% each time. Besides, the “Herbicidal rate (%) Lindernia pyxidaria” value was 90% in [3] and 100% in test [14]. Moreover, the entries for the “Herbicidal rate (%) Monochoria vaginalis” value in [3] and in [14] were 100% and 90%, respectively. Further, the “herbicidal effect (herbicidal rate), Echinochloa crus-galli” value in [4] is 90%. The “herbicidal effect … Chenopodium album” value in test [5] amounted to 40%. In addition, the “herbicidal effect … southern crabgrass” value in test [6] is given as 80%. Also, the “herbicidal effect … Amaranthus viridis” value in test [7] is recorded as 60%. In test [8], the “herbicidal rate, Echinochloa crus-galli” value came to 100%. Also, in test [9], the “herbicidal rate, Chenopodium album” value is given as 90%. Besides, the “herbicidal rate, southern crabgrass” value in [10] was 90%. For the same compound, in test [11], the “herbicidal rate, Amaranthus viridis” value came to 70%.

For the compound `Cc1c(Cc2ccccc2NS(=O)(=O)C(F)(F)F)c(=O)on1C(C)C1CC1` (stereo not shown) [Compound 1-144], the “Herbicidal rate (%) Echinochloa crus-galli” value in [1] was determined as 90%; in [12], 100%. In addition, the “Herbicidal rate (%) Scirpus juncoides” value in [2] and in test [13] was 90% each time. In addition, the results for the “Herbicidal rate (%) Lindernia pyxidaria” value in [3] and in test [14] were 50% and 90%, respectively. The “Herbicidal rate (%) Monochoria vaginalis” value in test [3] worked out at 80%; in [14], 100%. For the same compound, the “herbicidal effect (herbicidal rate), Echinochloa crus-galli” value in test [4] is 90%. For the same compound, the “herbicidal effect … Chenopodium album” value in [5] was determined as 0%. Moreover, in test [6], the “herbicidal effect … southern crabgrass” value was found to be 90%. For the same compound, the “herbicidal effect … Amaranthus viridis” value in [7] worked out at 50%. Besides, in test [8], the “herbicidal rate, Echinochloa crus-galli” value was determined as 70%. Further, the “herbicidal rate, Chenopodium album” value in [9] is 0%. The “herbicidal rate, southern crabgrass” value in [10] is on record as 80%. For the same compound, in [11], the “herbicidal rate, Amaranthus viridis” value stood at 0%.
